Like-named read-outs stand apart in the source and are kept apart here. Non-standard residues stand in square brackets, D forms with d. Residues, ends and D or L forms follow the SMILES beside them. *: point of attachment. pY = N[C@@H](Cc1ccc(OP(=O)(O)O)cc1)C(=O)O; Caffeoyl = O=C(/C=C/c1ccc(O)c(O)c1)*
Columns and labels:
Experiment in all cases: biochemical
Type in all cases: binding
TNS2 = molecular target: T1, TNS2 (Homo sapiens, UniProt Q63HR2); details: for remaining activity at 10 µM: read-out: percent of DMSO vehicle control
T1 construct: made in house; host or cells: HEK293 (transient transfection), unpurified extract
T1 sequence (Q63HR2 1-1409): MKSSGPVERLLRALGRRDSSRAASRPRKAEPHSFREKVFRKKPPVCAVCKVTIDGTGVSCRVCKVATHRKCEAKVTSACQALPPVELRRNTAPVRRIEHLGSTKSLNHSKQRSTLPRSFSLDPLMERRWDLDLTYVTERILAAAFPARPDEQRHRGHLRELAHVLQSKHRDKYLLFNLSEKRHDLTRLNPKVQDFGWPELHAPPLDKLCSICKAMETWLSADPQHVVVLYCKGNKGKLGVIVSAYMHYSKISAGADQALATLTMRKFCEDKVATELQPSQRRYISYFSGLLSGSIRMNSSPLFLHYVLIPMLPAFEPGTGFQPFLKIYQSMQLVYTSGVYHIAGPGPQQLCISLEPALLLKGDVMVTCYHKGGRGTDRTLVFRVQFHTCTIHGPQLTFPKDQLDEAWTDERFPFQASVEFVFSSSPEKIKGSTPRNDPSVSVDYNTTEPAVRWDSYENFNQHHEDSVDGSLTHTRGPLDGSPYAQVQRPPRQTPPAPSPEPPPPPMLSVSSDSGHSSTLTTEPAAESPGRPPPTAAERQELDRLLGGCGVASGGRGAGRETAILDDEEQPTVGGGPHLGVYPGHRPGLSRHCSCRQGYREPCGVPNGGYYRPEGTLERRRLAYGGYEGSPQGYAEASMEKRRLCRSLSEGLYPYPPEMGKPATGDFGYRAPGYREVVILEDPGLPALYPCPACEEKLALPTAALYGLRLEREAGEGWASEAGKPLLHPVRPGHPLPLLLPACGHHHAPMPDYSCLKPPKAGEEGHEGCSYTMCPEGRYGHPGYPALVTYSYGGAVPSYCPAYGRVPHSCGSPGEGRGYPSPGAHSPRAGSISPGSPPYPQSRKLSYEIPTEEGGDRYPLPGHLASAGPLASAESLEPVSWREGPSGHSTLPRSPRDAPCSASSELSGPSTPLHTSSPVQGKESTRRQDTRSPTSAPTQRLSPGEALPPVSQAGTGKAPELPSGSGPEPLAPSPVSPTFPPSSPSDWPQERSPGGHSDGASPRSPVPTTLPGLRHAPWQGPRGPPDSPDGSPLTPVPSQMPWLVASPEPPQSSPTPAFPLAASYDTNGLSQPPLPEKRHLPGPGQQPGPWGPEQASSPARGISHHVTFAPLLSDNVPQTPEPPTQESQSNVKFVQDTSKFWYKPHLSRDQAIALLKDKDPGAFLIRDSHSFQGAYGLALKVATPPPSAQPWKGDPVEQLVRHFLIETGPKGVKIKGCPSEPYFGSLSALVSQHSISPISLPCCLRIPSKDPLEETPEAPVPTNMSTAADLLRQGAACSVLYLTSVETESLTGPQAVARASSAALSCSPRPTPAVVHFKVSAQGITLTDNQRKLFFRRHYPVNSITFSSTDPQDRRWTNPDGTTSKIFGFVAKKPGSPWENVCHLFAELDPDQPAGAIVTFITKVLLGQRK

ITK = molecular target: T2, ITK (Homo sapiens, UniProt Q08881); details: for percent of DMSO vehicle control: primary screen, 10 μM
T2 construct: the DNA-tagged SH2 domain concentrations used in this study were <0.1 nM; made in house; host or cells: HEK293 (transient transfection, unpurified extract)
T2 sequence (Q08881 239-338 limits assumed): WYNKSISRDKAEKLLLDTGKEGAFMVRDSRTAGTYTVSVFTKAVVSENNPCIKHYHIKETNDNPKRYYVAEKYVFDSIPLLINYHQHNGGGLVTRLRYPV

NCK1 = molecular target: T3, NCK1 (Homo sapiens, UniProt P16333); details: for remaining activity at 10 µM: read-out: percent of DMSO vehicle control
T3 construct: the DNA-tagged SH2 domain concentrations used in this study were <0.1 nM; made in house; host or cells: HEK293 (transient transfection, unpurified extract)

PTPN6(SH2dom.C-term.) = molecular target: T4, PTPN6(SH2dom.C-term.) (Homo sapiens, UniProt P29350); details: for remaining activity at 10 µM: read-out: percent of DMSO vehicle control
T4 construct: SH2dom.C-term. denotes SH2 domain closest to C-terminus of protein; made in house; host or cells: HEK293 (transient transfection, unpurified extract)
T4 sequence (P29350 110-213 limits assumed): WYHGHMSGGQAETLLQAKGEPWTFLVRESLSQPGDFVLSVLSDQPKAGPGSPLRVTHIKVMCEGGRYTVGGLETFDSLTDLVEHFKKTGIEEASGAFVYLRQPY

RASA1(SH2dom.N-term.) = molecular target: T5, RASA1(SH2dom.N-term.) (Homo sapiens, UniProt P20936); details: for remaining activity at 10 µM: read-out: percent of DMSO vehicle control
T5 construct: SH2dom.N-term. denotes SH2 domain closest to N-terminus of protein; made in house; host or cells: HEK293 (transient transfection), unpurified extract
T5 sequence (P20936 181-272 limits assumed): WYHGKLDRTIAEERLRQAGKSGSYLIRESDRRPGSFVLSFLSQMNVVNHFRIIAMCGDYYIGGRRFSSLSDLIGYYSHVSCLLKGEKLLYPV

VAV2 = molecular target: T6, VAV2 (Homo sapiens, UniProt P52735); details: for remaining activity at 10 µM: read-out: percent of DMSO vehicle control
T6 construct: made in house; host or cells: HEK293 (transient transfection), unpurified extract
T6 sequence (P52735 1-878): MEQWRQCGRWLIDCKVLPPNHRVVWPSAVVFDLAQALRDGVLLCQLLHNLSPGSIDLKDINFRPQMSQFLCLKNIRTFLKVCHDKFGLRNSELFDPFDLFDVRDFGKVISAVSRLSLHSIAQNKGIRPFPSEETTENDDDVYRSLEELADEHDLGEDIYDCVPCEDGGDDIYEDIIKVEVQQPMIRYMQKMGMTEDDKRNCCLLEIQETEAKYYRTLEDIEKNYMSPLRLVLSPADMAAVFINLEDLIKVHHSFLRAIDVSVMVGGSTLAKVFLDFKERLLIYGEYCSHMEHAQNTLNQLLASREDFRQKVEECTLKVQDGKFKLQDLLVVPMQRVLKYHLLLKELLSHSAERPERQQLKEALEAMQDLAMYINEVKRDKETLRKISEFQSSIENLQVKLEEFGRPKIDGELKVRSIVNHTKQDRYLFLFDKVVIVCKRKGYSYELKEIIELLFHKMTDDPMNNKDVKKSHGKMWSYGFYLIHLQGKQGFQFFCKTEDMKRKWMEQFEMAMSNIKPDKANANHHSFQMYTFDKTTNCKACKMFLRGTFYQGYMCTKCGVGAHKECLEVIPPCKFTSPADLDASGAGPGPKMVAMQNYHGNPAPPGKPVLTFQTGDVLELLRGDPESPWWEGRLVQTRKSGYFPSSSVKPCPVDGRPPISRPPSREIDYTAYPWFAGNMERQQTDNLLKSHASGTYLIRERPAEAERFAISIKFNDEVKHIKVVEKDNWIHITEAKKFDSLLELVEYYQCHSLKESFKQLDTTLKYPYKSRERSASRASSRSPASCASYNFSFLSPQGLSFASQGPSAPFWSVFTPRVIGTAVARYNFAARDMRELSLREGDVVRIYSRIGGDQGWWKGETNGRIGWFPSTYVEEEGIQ

SMILES | Kd (TNS2) [nM] | percent of DMSO vehicle control (ITK) [%] | remaining activity at 10 µM (NCK1) [%] | remaining activity at 10 µM (PTPN6(SH2dom.C-term.)) [%] | remaining activity at 10 µM (RASA1(SH2dom.N-term.)) [%] | remaining activity at 10 µM (TNS2) [%] | remaining activity at 10 µM (VAV2) [%] | remaining activity at 10 µM (NCK1; primary screen, 10 μM) [%] | remaining activity at 10 µM (PTPN6(SH2dom.C-term.); primary screen, 10 μM) [%] | remaining activity at 10 µM (RASA1(SH2dom.N-term.); primary screen, 10 μM) [%] | remaining activity at 10 µM (TNS2; primary screen, 10 μM) [%] | remaining activity at 10 µM (VAV2; primary screen, 10 μM) [%] | also measured
CC[C@H](C)[C@H](NC(=O)[C@H](CO)NC(=O)[C@H](CC(C)C)NC(=O)[C@H](CCCNC(=N)N)NC(=O)[C@H](CO)NC(=O)[C@H](CS)NC(C)=O)C(=O)N[C@@H](Cc1ccc(OP(=O)(O)O)cc1)C(=O)N[C@@H](CC(=O)O)C(=O)N[C@@H](CC(N)=O)C(=O)N[C@H](C(=O)N1CCC[C@H]1C(=O)NCC(N)=O)C(C)C [Ac-CSRLSIpYDNVPG-NH2] (Ac-CSRLSI[pY]DNVPG-NH2) | 466 ± 450 |  |  |  |  |  |  |  |  |  |  |  | 
CC[C@H](C)[C@H](NC(=O)[C@H](CCC(=O)O)NC(=O)[C@H](CCC(=O)O)NC(=O)[C@H](Cc1ccc(OP(=O)(O)O)cc1)NC(C)=O)C(=O)N[C@@H](CCC(=O)O)C(N)=O [Ac-pYEEIE-NH2] (Ac-[pY]EEIE-NH2) |  | 122.5 |  |  |  |  |  |  |  |  |  |  | percent of DMSO vehicle control (NCK1; primary screen, 10 μM): 90.1%; percent of DMSO vehicle control (PTPN6(SH2dom.C-term.); primary screen, 10 μM): 110.0%; percent of DMSO vehicle control (RASA1(SH2dom.N-term.); primary screen, 10 μM): 121.2%; percent of DMSO vehicle control (TNS2; primary screen, 10 μM): 104.0%; percent of DMSO vehicle control (VAV2; primary screen, 10 μM): 49.5±2.8%
CC(=O)N[C@@H](Cc1ccc(CP(=O)(O)O)cc1)C(=O)NC1(C(=O)N[C@@H](CC(N)=O)C(=O)NCCCc2c(O)ccc3ccccc23)CCCCC1 [CGP78850] | 1200 | 113.6±8.8 | 104 ± 4.8 | 130.9 ± 0.8 | 47.6 ± 2.5 | 16 | 50.4 ± 7.8 |  |  |  |  |  | 
CC[C@H](C)[C@H](NC(=O)[C@H](CCC(=O)O)NC(=O)[C@H](CCC(=O)O)NC(=O)[C@H](Cc1ccc(OP(=O)(O)O)cc1)NC(=O)/C=C/c1ccc(O)c(O)c1)C(=O)N[C@@H](CCC(=O)O)C(=O)O [Caffeic acid-pYEEIE] (Caffeoyl-[pY]EEIE-OH) | 4300 ± 2500 | 3.1±0.3 | 0.8 ± 0.1 | 114 ± 11 | 0.1 | 4.8 ± 1.3 | 0.5 ± 0.1 |  |  |  |  |  | Kd (ITK): 570 ± 630 nM; Kd (NCK1): 97 ± 71 nM; Kd (RASA1(SH2dom.N-term.)): 230 ± 410 nM; Kd (VAV2): 58 ± 40 nM
O=C(CCl)Nc1cccc(CNC(=O)[C@H](Cc2ccc(OP(=O)(O)O)cc2)NC(=O)Cc2ccc(F)cc2)c1 [MN551] |  | 51.4±1.1 |  |  |  |  |  | 67.4 ± 5.3 | 147 | 94.2 ± 3 | 74.1 ± 2.1 | 77.8 ± 4.8 | 
NC(=O)CC[C@H](NC(=O)[C@@H]1CC[C@@H]2CCN(C(=O)CCCCCC#Cc3cccc4c3CN(C3CCC(=O)NC3=O)C4=O)C[C@H](NC(=O)c3cc4cc(C(F)(F)P(=O)(O)O)ccc4[nH]3)C(=O)N21)C(=O)NC(c1ccccc1)c1ccccc1 (stereo partly shown) [SD-36] |  | 94.0±11.1 | 106 | 108 ± 6.9 | 64.7 ± 0.3 | 65.4 ± 3.3 | 117 ± 1.5 |  |  |  |  |  | 
CC(=O)N1CC[C@H]2CC[C@@H](C(=O)N[C@@H](CCC(N)=O)C(=O)NC(c3ccccc3)c3ccccc3)N2C(=O)[C@@H](NC(=O)c2cc3cc(C(F)(F)P(=O)(O)O)ccc3[nH]2)C1 [SI-109] |  | 124.2 | 124 | 119 | 123 | 126 | 119 |  |  |  |  |  | 
C/C(=C\C(=O)N[C@H](C(=O)N1CCC[C@H]1C(=O)N(c1ccccc1)c1ccc(I)cc1)C(C)(C)C)c1ccc(OP(=O)(O)O)cc1 [STAT6-IN-1] |  | 0.0±0.0 |  |  |  |  |  | 10.6 ± 2.6 | 45.8 ± 7.8 | 50.2 ± 0.4 | 55.9 ± 0.4 | 79.9 ± 1.6 | Kd (ITK; dose-response, read-out: KD): 10300 nM; KD (NCK1; dose-response): No Hit
CC(C)(C)[C@H](NC(=O)/C=C/c1ccc(OP(=O)(O)O)cc1)C(=O)N1CCC[C@H]1C(=O)N(c1ccccc1)c1ccc(I)cc1 [STAT6-IN-3] |  | 0±54.7 |  |  |  |  |  | 85.1 ± 10.2 | 136 ± 30.6 | 81.7 ± 8.5 | 86.8 ± 7.1 | 87.5 ± 11.3 | 
O=C(COc1ccc2cc(C(=O)Nc3ccccc3)ccc2c1)NCc1ccc(OP(=O)(O)O)c(OP(=O)(O)O)c1 [Stafib-1] |  | 0±61.0 |  |  |  |  |  | 53.7 ± 39.3 | 179 | 71.3 ± 8.8 | 86 ± 8.8 | 95.8 ± 29.1 | KD (ITK; dose-response): No Hit

Source: paper PMC12951562, “SH2scan: Mapping SH2 Domain-Ligand Binding Selectivity for Inhibitors and Degraders” (Journal of Medicinal Chemistry, 2026)
